PubChem BioAssay (NCI)
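The compound was tested at five concentrations on cells cultured in 96-well plates, with a 48-hour exposure period. Here, GI50 denotes the concentration required for 50% inhibition of growth. TGI: concentration producing complete growth inhibition.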

Assays:
Assay in all cases: growth of human tumour cells (NCI), 48 h
CCRF-CEM leukemia = tested on: CCRF-CEM leukemia
HS 578T breast = tested on: HS 578T breast
ACHN renal = tested on: ACHN renal
SF-268 CNS = tested on: SF-268 CNS
KM12 colon = tested on: KM12 colon
MALME-3M melanoma = tested on: MALME-3M melanoma
SR leukemia = tested on: SR leukemia
UACC-257 melanoma = tested on: UACC-257 melanoma
HCT-15 colon = tested on: HCT-15 colon
RXF 393 renal = tested on: RXF 393 renal
OVCAR-4 ovarian = tested on: OVCAR-4 ovarian
UO-31 renal = tested on: UO-31 renal
RPMI-8226 leukemia = tested on: RPMI-8226 leukemia
HOP-92 NSCLC = tested on: HOP-92 NSCLC
NCI-H522 lung = tested on: NCI-H522 lung
BT-549 breast = tested on: BT-549 breast
HCT-116 colon = tested on: HCT-116 colon
SF-295 CNS = tested on: SF-295 CNS
A549 NSCLC = tested on: A549 NSCLC
SNB-75 CNS = tested on: SNB-75 CNS
SK-MEL-2 melanoma = tested on: SK-MEL-2 melanoma
NCI-H460 lung = tested on: NCI-H460 lung
SK-OV-3 ovarian = tested on: SK-OV-3 ovarian
M14 melanoma = tested on: M14 melanoma
786-0 renal = tested on: 786-0 renal
SW-620 colon = tested on: SW-620 colon
TK-10 renal = tested on: TK-10 renal
SK-MEL-5 melanoma = tested on: SK-MEL-5 melanoma
COLO 205 colon = tested on: COLO 205 colon
HT29 colon = tested on: HT29 colon
HL-60(TB) leukemia = tested on: HL-60(TB) leukemia
OVCAR-8 ovarian = tested on: OVCAR-8 ovarian
EKVX NSCLC = tested on: EKVX NSCLC
OVCAR-5 ovarian = tested on: OVCAR-5 ovarian
PC-3 prostate = tested on: PC-3 prostate
MDA-MB-231 breast = tested on: MDA-MB-231 breast
SNB-19 CNS = tested on: SNB-19 CNS
NCI-H226 lung = tested on: NCI-H226 lung
MDA-MB-435 = tested on: MDA-MB-435
HOP-62 NSCLC = tested on: HOP-62 NSCLC
U251 CNS = tested on: U251 CNS
SF-539 CNS = tested on: SF-539 CNS
SK-MEL-28 melanoma = tested on: SK-MEL-28 melanoma
K-562 leukemia = tested on: K-562 leukemia
T-47D breast = tested on: T-47D breast
CAKI-1 renal = tested on: CAKI-1 renal
HCC-2998 colon = tested on: HCC-2998 colon
OVCAR-3 ovarian = tested on: OVCAR-3 ovarian
UACC-62 melanoma = tested on: UACC-62 melanoma
SN12C renal = tested on: SN12C renal
LOX IMVI melanoma = tested on: LOX IMVI melanoma
NCI-H23 lung = tested on: NCI-H23 lung
A498 renal = tested on: A498 renal
DU-145 prostate = tested on: DU-145 prostate
MOLT-4 leukemia = tested on: MOLT-4 leukemia
NCI/ADR-RES ovarian = tested on: NCI/ADR-RES ovarian
MCF7 breast = tested on: MCF7 breast
IGROV1 ovarian = tested on: IGROV1 ovarian

In the case of `Oc1ccc(CCl)c2cccnc12`, the GI50 (CCRF-CEM leukemia) is reported as 4.1 µM, the TGI (CCRF-CEM leukemia) is reported as > 100 µM and the GI50 (HS 578T breast) is reported as 6.94 µM. For the same compound, the TGI (HS 578T breast) was 91.3 µM, the GI50 (ACHN renal) was 6.88 µM and the TGI (ACHN renal) was > 100 µM. For the same compound, the GI50 (SF-268 CNS) was 6.84 µM, the TGI (SF-268 CNS) was > 100 µM and the GI50 (KM12 colon) was 11.3 µM. For the same compound, the TGI (KM12 colon) was > 100 µM, the GI50 (MALME-3M melanoma) was 4.44 µM and the TGI (MALME-3M melanoma) was 36 µM. It also gave a GI50 (SR leukemia) of 3.43 µM, a TGI (SR leukemia) of 53.6 µM and a GI50 (UACC-257 melanoma) of 4.21 µM. For the same compound, the TGI (UACC-257 melanoma) was > 100 µM, the GI50 (HCT-15 colon) was 3.8 µM and the TGI (HCT-15 colon) was > 100 µM. The GI50 (RXF 393 renal) was 32.9 µM, the TGI (RXF 393 renal) was > 100 µM and the GI50 (OVCAR-4 ovarian) was 3.41 µM. For the same compound, the TGI (OVCAR-4 ovarian) was > 100 µM, the GI50 (UO-31 renal) was 2.9 µM and the TGI (UO-31 renal) was > 100 µM. For the same compound, the GI50 (RPMI-8226 leukemia) was 4.25 µM, the TGI (RPMI-8226 leukemia) was > 100 µM and the GI50 (HOP-92 NSCLC) was 14.5 µM. For the same compound, the TGI (HOP-92 NSCLC) was 90 µM, the GI50 (NCI-H522 lung) was 3.62 µM and the TGI (NCI-H522 lung) was > 100 µM. The GI50 (BT-549 breast) was 32.4 µM, the TGI (BT-549 breast) was > 100 µM and the GI50 (HCT-116 colon) was 3.29 µM. The TGI (HCT-116 colon) was > 100 µM, the GI50 (SF-295 CNS) was 3.72 µM and the TGI (SF-295 CNS) was 25.8 µM. For the same compound, the GI50 (A549 NSCLC) was 14.3 µM, the TGI (A549 NSCLC) was > 100 µM and the GI50 (SNB-75 CNS) was 44 µM. The TGI (SNB-75 CNS) was > 100 µM, the GI50 (SK-MEL-2 melanoma) was > 100 µM and the TGI (SK-MEL-2 melanoma) was > 100 µM. For the same compound, the GI50 (NCI-H460 lung) was 3.95 µM, the TGI (NCI-H460 lung) was 16 µM and the GI50 (SK-OV-3 ovarian) was 43.8 µM. For the same compound, the TGI (SK-OV-3 ovarian) was > 100 µM, the GI50 (M14 melanoma) was 3.2 µM and the TGI (M14 melanoma) was > 100 µM. For the same compound, the GI50 (786-0 renal) was 37.7 µM, the TGI (786-0 renal) was > 100 µM and the GI50 (SW-620 colon) was 4.12 µM. For the same compound, the TGI (SW-620 colon) was > 100 µM, the GI50 (TK-10 renal) was > 100 µM and the TGI (TK-10 renal) was > 100 µM. The GI50 (SK-MEL-5 melanoma) was 12.4 µM, the TGI (SK-MEL-5 melanoma) was 35.6 µM and the GI50 (COLO 205 colon) was 7.05 µM. The TGI (COLO 205 colon) was > 100 µM, the GI50 (HT29 colon) was 9.68 µM and the TGI (HT29 colon) was > 100 µM. It also gave a GI50 (HL-60(TB) leukemia) of 1.36 µM, a TGI (HL-60(TB) leukemia) of 17.7 µM and a GI50 (OVCAR-8 ovarian) of 4.93 µM. The TGI (OVCAR-8 ovarian) was > 100 µM, the GI50 (EKVX NSCLC) was 3.21 µM and the TGI (EKVX NSCLC) was 31.6 µM. For the same compound, the GI50 (OVCAR-5 ovarian) was 17.5 µM, the TGI (OVCAR-5 ovarian) was > 100 µM and the GI50 (PC-3 prostate) was 12.3 µM. For the same compound, the TGI (PC-3 prostate) was > 100 µM, the GI50 (MDA-MB-231 breast) was 6.07 µM and the TGI (MDA-MB-231 breast) was > 100 µM. The GI50 (SNB-19 CNS) was 22.9 µM, the TGI (SNB-19 CNS) was > 100 µM and the GI50 (NCI-H226 lung) was 34.6 µM. For the same compound, the TGI (NCI-H226 lung) was > 100 µM, the GI50 (MDA-MB-435) was 5.81 µM and the TGI (MDA-MB-435) was 95.3 µM. The GI50 (HOP-62 NSCLC) was 16 µM, the TGI (HOP-62 NSCLC) was > 100 µM and the GI50 (U251 CNS) was 7.7 µM. The TGI (U251 CNS) was > 100 µM, the GI50 (SF-539 CNS) was 14.5 µM and the TGI (SF-539 CNS) was > 100 µM. For the same compound, the GI50 (SK-MEL-28 melanoma) was 59 µM, the TGI (SK-MEL-28 melanoma) was > 100 µM and the GI50 (K-562 leukemia) was 3.39 µM. The TGI (K-562 leukemia) was > 100 µM, the GI50 (T-47D breast) was 3.65 µM and the TGI (T-47D breast) was > 100 µM. The GI50 (CAKI-1 renal) was 5.91 µM, the TGI (CAKI-1 renal) was 53.3 µM and the GI50 (HCC-2998 colon) was 33.5 µM. The TGI (HCC-2998 colon) was > 100 µM, the GI50 (OVCAR-3 ovarian) was 2.08 µM and the TGI (OVCAR-3 ovarian) was 5.5 µM. For the same compound, the GI50 (UACC-62 melanoma) was 8.37 µM, the TGI (UACC-62 melanoma) was > 100 µM and the GI50 (SN12C renal) was 12.5 µM. The TGI (SN12C renal) was > 100 µM, the GI50 (LOX IMVI melanoma) was 4.9 µM and the TGI (LOX IMVI melanoma) was > 100 µM. The GI50 (NCI-H23 lung) was 6.13 µM, the TGI (NCI-H23 lung) was > 100 µM and the GI50 (A498 renal) was 46.5 µM. The TGI (A498 renal) was > 100 µM, the GI50 (DU-145 prostate) was 15.7 µM and the TGI (DU-145 prostate) was > 100 µM. The GI50 (MOLT-4 leukemia) was 3.96 µM, the TGI (MOLT-4 leukemia) was > 100 µM and the GI50 (NCI/ADR-RES ovarian) was 2.98 µM. The TGI (NCI/ADR-RES ovarian) was 28.9 µM.
For `ClCCN1CCOC1=C1C=CC=C1`, the TGI (CCRF-CEM leukemia) was > 100 µM, the TGI (HS 578T breast) was > 100 µM and the TGI (ACHN renal) was > 100 µM. For the same compound, the TGI (SF-268 CNS) was > 100 µM, the TGI (KM12 colon) was > 100 µM and the TGI (SR leukemia) was 40.4 µM. The TGI (UACC-257 melanoma) was > 100 µM, the TGI (HCT-15 colon) was > 100 µM and the TGI (MCF7 breast) was > 100 µM. For the same compound, the TGI (UO-31 renal) was > 100 µM, the TGI (RPMI-8226 leukemia) was > 100 µM and the TGI (HOP-92 NSCLC) was > 100 µM. The TGI (BT-549 breast) was > 100 µM, the TGI (HCT-116 colon) was > 100 µM and the TGI (SF-295 CNS) was > 100 µM. For the same compound, the TGI (A549 NSCLC) was > 100 µM, the TGI (SNB-75 CNS) was > 100 µM and the TGI (NCI-H460 lung) was > 100 µM. The TGI (SK-OV-3 ovarian) was > 100 µM, the TGI (M14 melanoma) was > 100 µM and the TGI (786-0 renal) was > 100 µM. The TGI (SW-620 colon) was > 100 µM, the TGI (SK-MEL-5 melanoma) was > 100 µM and the TGI (COLO 205 colon) was > 100 µM. The TGI (HT29 colon) was > 100 µM, the TGI (HL-60(TB) leukemia) was > 100 µM and the TGI (OVCAR-8 ovarian) was > 100 µM. The TGI (EKVX NSCLC) was > 100 µM, the TGI (OVCAR-5 ovarian) was > 100 µM and the TGI (PC-3 prostate) was > 100 µM. The TGI (MDA-MB-231 breast) was > 100 µM, the TGI (SNB-19 CNS) was > 100 µM and the TGI (NCI-H226 lung) was > 100 µM. The TGI (MDA-MB-435) was > 100 µM, the TGI (HOP-62 NSCLC) was > 100 µM and the TGI (U251 CNS) was > 100 µM. The TGI (SF-539 CNS) was > 100 µM, the TGI (IGROV1 ovarian) was > 100 µM and the TGI (SK-MEL-28 melanoma) was > 100 µM. For the same compound, the TGI (T-47D breast) was > 100 µM, the TGI (CAKI-1 renal) was > 100 µM and the TGI (OVCAR-3 ovarian) was > 100 µM. The TGI (SN12C renal) was > 100 µM, the TGI (LOX IMVI melanoma) was > 100 µM and the TGI (NCI-H23 lung) was > 100 µM. For the same compound, the TGI (A498 renal) was > 100 µM, the TGI (DU-145 prostate) was > 100 µM and the TGI (MOLT-4 leukemia) was > 100 µM. For the same compound, the TGI (NCI/ADR-RES ovarian) was > 100 µM.
